Data reported in patent publication US20240041042A1, “1-(PYRIDYL)-5-AZINYLPYRAZOLE DERIVATIVES, AND THEIR USE FOR CONTROL OF UNDESIRED PLANT GROWTH” (Bayer Aktiengesellschaft, priority 2020, published 2024).
Read-outs that look alike come from different tables or passages of the source.

Legend:
Type in all cases: in vivo
[1] = system: Alopecurus myosuroides (ALOMY); assay: Pre-emergence herbicidal action against ALOMY; conditions: scored visually after about 3 weeks, 100% = plants have died
In short: (§1)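 Pre-emergence soil-surface spray of compound, formulated as wettable powder or emulsion concentrate, in aqueous suspension or emulsion with 0.5% additive (600 l/ha; rate 320 g/ha or less). Activity rated visually after roughly 3 weeks in the greenhouse as a percentage of untreated controls, 0% meaning no difference.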

[2] = system: Amaranthus retroflexus (AMARE); assay: Pre-emergence herbicidal action against AMARE; conditions: visual scoring after about 3 weeks vs untreated controls
In short: as §1

Avena fatua (AVEFA) [3] = assay: Pre-emergence herbicidal action against AVEFA; conditions: 320 g/ha, visual scoring after about 3 weeks vs untreated controls
In short: as §1

[4] = system: Digitaria sanguinalis (DIGSA); assay: Pre-emergence herbicidal action against DIGSA
In short: as §1

[5] = system: Echinochloa crus-galli (ECHCG); assay: Pre-emergence herbicidal action against ECHCG; conditions: dosage 320 g/ha
In short: as §1

Lolium rigidum (LOLRI) = assay: Pre-emergence herbicidal action against LOLRI
In short: as §1

[6] = system: Matricaria inodora (MATIN); assay: Pre-emergence herbicidal action against MATIN; conditions: dosage 320 g/ha
In short: as §1

[7] = system: Pharbitis purpurea (PHBPU); assay: Pre-emergence herbicidal action against PHBPU; conditions: dosage 320 g/ha
In short: as §1

[8] = system: Polygonum convolvulus (POLCO); assay: Pre-emergence herbicidal action against POLCO; conditions: dosage 320 g/ha
In short: as §1

Setaria viridis (SETVI) [9] = assay: Pre-emergence herbicidal action against SETVI
In short: as §1

[10] = system: Verconica persica (VERPE); assay: Pre-emergence herbicidal action against VERPE; conditions: dosage 320 g/ha
In short: as §1

Viola tricolor (VIOTR) [11] = assay: Pre-emergence herbicidal action against VIOTR
In short: as §1

Oryza sativa (ORYSA) [12] = conditions: pre-emergence, 80 g/ha, crop plant compatibility, in comparison to untreated controls
In short: (§2)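 Scoring: visual, % of untreated control, about 3 weeks after a pre-emergence application to the soil surface. Application used WP or EC formulations diluted in water with 0.5% additive at 600 l/ha; dosage levels are marked by suffixes a, b and c.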

Zea mays (ZEAMX) [13] = conditions: pre-emergence, 80 g/ha, crop plant compatibility, in comparison to untreated controls
In short: as §2

[14] = system: Amaranthus retroflexus (AMARE); assay: Post-emergence herbicidal action against AMARE
In short: (§3)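 Values are percent visual activity (0% like control, 100% plants dead) after about 3 weeks in the greenhouse. Treatment: post-emergence spray at one-leaf stage, 600 l/ha spray volume, 0.5% additive, doses 320 g/ha or lower.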

[15] = system: Polygonum convolvulus (POLCO); assay: Post-emergence herbicidal action against POLCO
In short: as §3

[16] = system: Verconica persica (VERPE); assay: Post-emergence herbicidal action against VERPE
In short: as §3

Oryza sativa (ORYSA) [17] = conditions: crop plant compatibility
In short: (§4)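 Percent effect on the crop was judged by eye against untreated controls, where 0% means like control and 100% means dead plants. Plants had been sprayed post-emergence at the one-leaf stage and then kept under optimum greenhouse conditions for about 3 weeks.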

Zea mays (ZEAMX) [18] = system: Zea mays (ZEAMX)
In short: as §4

[19] = system: Abutilon theophrasti (ABUTH); assay: Post-emergence herbicidal action against ABUTH; conditions: 80 g/ha, visual rating about 3 weeks after treatment vs untreated controls (100% = plants have died, 0% = like control plants)
In short: as §3

[20] = system: Alopecurus myosuroides (ALOMY); assay: Post-emergence herbicidal action against ALOMY; conditions: 80 g/ha, visual rating about 3 weeks after treatment vs untreated controls (100% = plants have died, 0% = like control plants)
In short: as §3

Avena fatua (AVEFA) [21] = assay: Post-emergence herbicidal action against AVEFA; conditions: 80 g/ha, visual rating about 3 weeks after treatment
In short: as §3

[22] = system: Digitaria sanguinalis (DIGSA); assay: Post-emergence herbicidal action against DIGSA; conditions: 80 g/ha, visual rating about 3 weeks after treatment
In short: as §3

[23] = system: Echinochloa crus-galli (ECHCG); assay: Post-emergence herbicidal action against ECHCG; conditions: dosage 80 g/ha
In short: as §3

[24] = system: Matricaria inodora (MATIN); assay: Post-emergence herbicidal action against MATIN
In short: as §3

[25] = system: Pharbitis purpurea (PHBPU); assay: Post-emergence herbicidal action against PHBPU
In short: as §3

Setaria viridis (SETVI) [26] = assay: Post-emergence herbicidal action against SETVI; conditions: dosage 80 g/ha
In short: as §3

Viola tricolor (VIOTR) [27] = assay: Post-emergence herbicidal action against VIOTR
In short: as §3

[28] = 80 g/ha, visual scoring after about 3 weeks vs untreated controls
[29] = 80 g/ha, visual rating about 3 weeks after treatment vs untreated controls (100% = plants have died, 0% = like control plants)
[30] = 20 g/ha, effect vs untreated controls
[31] = 80 g/ha, effect in comparison to untreated controls

Compound	Pre-emergence action against ALOMY ([1]; 80 g/ha) [%]	Pre-emergence action against ALOMY ([1]; 320 g/ha) [%]	Pre-emergence action against AMARE in % ([2]; 80 g/ha) [%]	Pre-emergence action against AMARE in % ([2]; 320 g/ha) [%]	Pre-emergence action against AVEFA in % (Avena fatua (AVEFA) [3]) [%]	Pre-emergence action against DIGSA in % [4, 28] [%]	Pre-emergence action against DIGSA in % ([4]; dosage 320 g/ha) [%]	Pre-emergence action against LOLRI in % (Lolium rigidum (LOLRI); dosage 320 g/ha) [%]	Pre-emergence action against MATIN in % [6] [%]	Pre-emergence action against PHBPU in % [7] [%]	Pre-emergence action against POLCO in % [8] [%]	Pre-emergence action against SETVI in % (Setaria viridis (SETVI) [9]; dosage 80 g/ha) [%]	Pre-emergence action against SETVI in % (Setaria viridis (SETVI) [9]; dosage 320 g/ha) [%]	Pre-emergence action against VERPE in % [10] [%]	Pre-emergence action against VIOTR in % (Viola tricolor (VIOTR) [11]; 320 g/ha, Viola tricolor) [%]	Pre-emergence action against ORYSA in % (Oryza sativa (ORYSA) [12]) [%]	Pre-emergence action against ZEAMX in % (Zea mays (ZEAMX) [13]) [%]	Post-emergence action against AMARE in % [14, 29] [%]	Post-emergence action against VERPE in % ([16]; dosage 80 g/ha) [%]	Post-emergence action against ORYSA in % (Oryza sativa (ORYSA) [17]; [31]) [%]	also measured
O=C(O)COc1nn(-c2ccccn2)c(-c2ccnc(F)c2)c1Br [Example I-122]	80	100	80	100	90	100	100	100	80	90	80	100	100	100	100	0	0	90	80	0	Pre-emergence action against ECHCG in % [5]: 100%; Pre-emergence action against VIOTR in % (Viola tricolor (VIOTR) [11]; dosage 80 g/ha): 100%; Post-emergence action against POLCO in % ([15]; dosage 80 g/ha): 90%; Post-emergence action against ORYSA in % (Oryza sativa (ORYSA) [17]; [30]): 0%; Post-emergence action against ZEAMX in % (crop plant compatibility) (Zea mays (ZEAMX) [18]; 20 g/ha, ZEAMX, effect in comparison to untreated controls): 0%
COC(=O)CNC(=O)COc1nn(-c2ccccn2)c(-c2ccc(F)nc2)c1Br [Example I-97]	90	100	90	100	80	100	100	100	80	90	90	80	100	90	100	10		90	90	10	Pre-emergence action against LOLRI in % (Lolium rigidum (LOLRI); dosage 80 g/ha): 80%; Post-emergence action against ABUTH in % [19]: 90%; Post-emergence action against ALOMY in % [20]: 90%; Post-emergence action against AVEFA in % (Avena fatua (AVEFA) [21]): 80%; Post-emergence action against DIGSA in % [22]: 80%; Post-emergence action against ECHCG in % [23]: 80%; Post-emergence action against MATIN in % ([24]; dosage 80 g/ha): 80%; Post-emergence action against PHBPU in % ([25]; dosage 80 g/ha): 80%; Post-emergence action against SETVI in % (Setaria viridis (SETVI) [26]): 80%; Post-emergence action against VIOTR in % (Viola tricolor (VIOTR) [27]; 80 g/ha): 80%; Post-emergence action against ORYSA in % (Oryza sativa (ORYSA) [17]; [30]): 0%
COC(=O)CCOC(=O)COc1nn(-c2ccccn2)c(-c2ccc(Cl)nc2)c1Br [Example I-246]				90			90							80		0	20			0	Post-emergence action against AMARE in % ([14]; 320 g/ha, visual rating about 3 weeks after treatment): 80%; Post-emergence action against MATIN in % ([24]; dosage 320 g/ha): 80%; Post-emergence action against PHBPU in % ([25]; dosage 80 g/ha): 80%; Post-emergence action against PHBPU in % ([25]; dosage 320 g/ha): 80%; Post-emergence action against POLCO in % ([15]; dosage 320 g/ha): 80%; Post-emergence action against VERPE in % ([16]; 320 g/ha, VERPE): 80%; Post-emergence action against VIOTR in % (Viola tricolor (VIOTR) [27]; 80 g/ha): 80%; Post-emergence action against VIOTR in % (Viola tricolor (VIOTR) [27]; 320 g/ha): 80%; Post-emergence action against ORYSA in % (Oryza sativa (ORYSA) [17]; 320 g/ha, effect in comparison to untreated controls): 10%; Post-emergence action against ZEAMX in % (Zea mays (ZEAMX) [18]; crop plant compatibility, 80 g/ha, effect vs untreated controls): 10%
